Laboratory results: patent US20210260051A1, “COMBINATION OF EZH2 INHIBITOR AND CHECKPOINT THERAPY FOR THE TREATMENT OF CANCER” (Board of Regents, The University of Texas System, priority 2018, published 2021)

System: inducible regulatory T cells
Assay: Luminex-based cytokine analysis of iTreg culture supernatant
Format: cell-based, mouse
Details: iTregs differentiated with vs without CPI-1205; FIG. 5C
Text: FIGS. 5A-5C: Naïve T cells from FoxP3enhanced green fluorescent protein (eGFP) C57BL/6 mice that were differentiated into iTregs in the presence or absence of CPI-1205. GFP^+FoxP3^+ regulatory T cells were subsequently used for RNA sequencing analysis. (FIG. 5A) Ingenuity Pathway Analysis of RNA sequencing data of regulatory T cells differentiated in the presence of DMSO or CPI-1205. (FIG. 5B) Differentially expressed genes (DEGs) seen following differentiation of inducible regulatory T cells in presence of CPI-1205 or DMSO. (FIG. 5C) Luminex-based cytokine analysis of culture supernatant from inducible regulatory T cells following differentiation with CPI-1205 or DMSO. 2 tailed student t test was used to determine significance; NS, not significant. **p<0.01.
To understand CPI-1205-mediated molecular changes underlying the loss of suppressive activity of regulatory T cells, naïve murine T cells (CD4^+CD25^low CD44^low CD62^hi) from FoxP3-enhanced green fluorescent protein (eGFP) C57BL/6 mice were differentiated into iTregs in the presence or absence of CPI-1205. Purified GFP^+FoxP3^+ regulatory T cells were subsequently used for RNA sequencing analysis. […] The cytokine levels were subsequently examined in the culture supernatant of the iTregs that were differentiated with and without CPI-1205. […]

COc1cc(C)[nH]c(=O)c1CNC(=O)c1c(C)n([C@H](C)C2CCN(CC(F)(F)F)CC2)c2ccccc12 [CPI-1205, N-[(4-methoxy-6-methyl-2-oxo-1H-pyridin-3-yl)methyl]-2-methyl-1-[(1R)-1-[1-(2,2,2-trifluoroethyl)piperidin-4-yl]ethyl]indole-3-carboxamide]
pro-inflammatory cytokines in the culture supernatant: significantly increased
